For 89 compounds, melting point results are on record in a melting point compilation (Tetko et al.; mined from patent text by program, amines drawn as free bases though some values may be those of a salt).

SMILES strings stand for the structures. Bounds are passed on as bounds.

`O=C(N[C@@H](Cc1ccccc1)C(=O)O)c1cccc(NC(=O)C(CS)Cc2ccccc2)c1` (some centres undefined) displayed a melting point of 83 to 85 °C.

In the case of `Cc1c(-c2ccccc2)sc2nc(NC3CCCCC3)[nH]c(=O)c12`, the melting point fell in the range of 265 to 270 °C.

Take `CC[C@H](C)[C@H](Nc1nc(C(=O)c2ccccc2)ns1)C(=O)N1CCC[C@H]1C(=O)O`: the melting point lay in the range of 132 to 134 °C.

On to `Brc1ccc(-c2cccs2)s1`, for which the melting point fell in the range of 55 to 56 °C.

`CN(C)c1ccc([PH](=O)c2ccc(N(C)C)cc2)cc1` displayed a melting point of 152 °C.

In turn, `CC(C)c1nn(-c2ccc(Cl)cc2NO)c(=O)o1` came in with a melting point of 129 °C.

For `O=C1C=C(c2ccc[nH]2)C(=O)c2ccccc21`, the melting point lay in the range of 155 to 158 °C.

The compound `CC1(N)CN=CC=C1N` (centres undefined) came in with a melting point of 163 to 165 °C.

`CCC(C)(C)c1ccc2oc(-c3ccc(O)cc3)nc2c1` had a melting point of 236 to 237 °C.

As to `CCOC(=O)C=CC=Cc1ccc([N+](=O)[O-])cc1`, the melting point is 150 to 152 °C.

`CN(C)S(=O)(=O)c1cccc2c1Sc1ccc(O)cc1N2CCCN1CCC(CCO)CC1`: the melting point was in the range of 163 to 165 °C.

In turn, `CN1c2ccccc2S(=O)(=O)c2cc(C=Cc3ccc(-c4ccc(C=Cc5ccc6c(c5)S(=O)(=O)c5ccccc5N6C)cc4)cc3)ccc21` gave a melting point of 360 °C.

Consider `O=P(O)(CCCNCc1cc(Cl)cc(Cl)c1)CC1CCCCC1`, for which the melting point fell in the range of 231 to 233 °C.

For `CC(C(N)=O)c1ccc2c(c1)C(=O)Cc1cc(C(F)(F)F)ccc1S2` (centres undefined), the melting point lay within 159 to 161 °C.

Compound `COC(=O)C(=O)c1ccc(OCC#Cc2ccccc2)cc1` had a melting point of 57 to 59 °C.

In the case of `NC(=O)c1ccn2c1CSC2`, the melting point was 186 °C.

Regarding `NC(=O)c1ncn2c(=O)n(Cc3ccccc3)nnc12`, the melting point lay in the range of 187 to 188 °C.

Take `CCOC(=O)c1ncn2c1CN(C)C(=S)c1cc(F)ccc1-2`: the melting point was 157 to 159 °C.

In turn, `O=C1Nc2ccc(Cl)cc2C1(O)c1cccc(F)c1F` (centres undefined) registered a melting point of 248 °C.

For `CCOc1ccc(C(CC(=O)OC)N2C(=O)c3ccc(N)cc3C2=O)cc1OCC` (centres undefined), the melting point is 143 to 145 °C.

`CCOC(=O)C1=CC(C(=O)c2cc(C)ccc2O)=CN2CCc3c([nH]c4ccccc34)C12C(=O)OCC` (centres undefined) registered a melting point of 208 °C.

Turning to `CCCn1nnn(-c2cc(OS(C)(=O)=O)c(Cl)cc2Cl)c1=O`, the melting point fell in the range of 64 to 65 °C.

In the case of `CC(=O)OCCNC(=O)Nc1ccc2c(c1)C(c1ccccc1F)=NCC(=O)N2C`, the melting point fell in the range of 196 to 198 °C.

With `O=C(O)c1ncc2[nH]c3ccccc3c2n1`, the melting point lay in the range of 187 to 189 °C.

In the case of `Cc1cc(Cl)ccc1N=c1scc(-c2ccc(Cl)c(S(=O)(=O)N(C)C)c2)n1C`, the melting point is 137 to 141 °C.

For the compound `C[C@@H]1OC=C[C@H](NC(=O)C(F)(F)F)[C@@]1(O)OC(=O)C(F)(F)F`, the melting point lay in the range of 73 to 74 °C.

`ClCCc1c[nH]c(-c2ccc(OCc3ccccc3)cc2)n1` returned a melting point of 163 to 165 °C.

Take `CCCc1nc(SC)nc(O)c1Cc1ccc(-c2ccccc2C#N)cc1`: the melting point amounted to 218 °C.

`FC(F)(F)c1cc2ncccc2cc1Cl` came in with a melting point of 137 to 139 °C.

In turn, `CCOC(=O)c1ncn2c1COc1ccccc1-2` had a melting point of 135 to 137 °C.

`COc1cc(C)c(C(=O)c2c(Cl)cccc2Cl)cc1OCC1CC1` yielded a melting point of 152 °C.

Compound `CCN(CC)C(=O)c1cc(-c2ccccc2)c2sccc2c1` returned a melting point of 78 °C.

As for `Clc1cccc(NNc2cccc(Cl)c2)c1`, the melting point is 116 °C.

`CCCOc1ccc(Cl)cc1C1=NC(=O)C2=NC=NC2=N1` yielded a melting point of 277 to 279 °C.

`CCCCCS(=O)(=O)NC(=O)/C=C/c1ccc(OCCOC)cc1Nc1ccc(C(F)(F)F)cc1Cl` gave a melting point of 174 to 175 °C.

Compound `O=C(c1cccc(Cl)c1)c1sc2cc(O)ccc2c1-c1ccccc1` displayed a melting point of 215 °C.

`COc1ccc(-c2nnc(OC)nc2-c2ccc(OC)cc2)cc1`: the melting point was 135 to 137 °C.

As for `CC(=O)OC[C@H]1NC(=O)[C@H]1NC(=O)C(=NOC(C)(C)C(=O)OCc1ccc([N+](=O)[O-])cc1)c1csc(NC(=O)CCl)n1` (relative stereo), the melting point was 120 to 123 °C.

With `COc1ccc(-c2cc3ccccc3[nH]2)cc1NCc1cccc([N+](=O)[O-])c1`, the melting point is 160 to 162 °C.

`CC(=O)C(C)Oc1cc(-n2c(=O)cc(C(F)(F)F)[nH]c2=O)c(F)cc1Br` (centres undefined): the melting point was 183 °C.

In turn, `CC1NC(=O)NN=C1c1ccc(NC(=O)CO)cc1` (centres undefined) yielded a melting point of 246 to 248 °C.

In turn, `CSc1nc2sccc2c2nnc(SCc3ccccc3)n12` registered a melting point of 209 to 211 °C.

`C=CCSc1nc(=O)[nH]cc1F`: the melting point lay within 150 to 152 °C.

The compound `Fc1cc2c(c3cccnc13)OC(CN1CC=C(c3c[nH]c4ccccc34)CC1)CO2` (centres undefined) registered a melting point of 215 °C.

With `Cc1ccccc1-c1cc(C#N)cc2c1OC(CN)C2` (centres undefined), the melting point fell in the range of 127 to 129 °C.

Compound `CN1Cc2c(Cc3ccc4c(c3)C(=O)NC4=O)ncn2-c2ccsc2C1=O` showed a melting point of 245 to 246 °C.

In turn, `CC=CC(=O)OCC(C)(Sc1cc2ccccc2n1C)c1ccccc1` (centres undefined) registered a melting point of 56 to 57 °C.

As for `O=C1OCC2C3OC(C4=C3CCCC4)C12` (centres undefined), the melting point fell in the range of 105 to 106 °C.

`CS(=O)(=O)c1ccc(C2=C(Br)CCC2)cc1` returned a melting point of 103 to 104 °C.

As to `O=C1Cc2ccccc2C1(Cc1ccncc1)Cc1ccncc1`, the melting point fell in the range of 95 to 96 °C.

Consider `Cc1cccc(C)c1NC(=O)N=C1N(C)CC(=O)N1C`, for which the melting point was in the range of 116 to 118 °C.

Compound `CCOc1ccc(C[C@@H](NC(=O)[C@H]2CC[C@H](C(C)C)CC2)C(=O)O)cc1` returned a melting point of 149 to 151 °C.

`S=C(NCc1ccccc1)C1(c2ccccn2)CCCS1` (centres undefined) had a melting point of 71 °C.

Consider `O=C(O)C1CSC(c2ccccc2OCC2CCC(CO[N+](=O)[O-])CC2)N1` (centres undefined), for which the melting point fell in the range of 108 to 111 °C.

With `CCc1cc2c(ccc(=O)n2Cc2ccc(C(=O)O)cc2)c(CC)n1`, the melting point is 143 to 146 °C.

`COc1ccc(CN(C)CCc2ccc(NC(=O)c3cccc4c(=O)c5ccccc5sc34)cc2)cc1OC` returned a melting point of 180 °C.

For the compound `CCCc1nn(-c2ccc(C(F)(F)F)cn2)cc1CCCOc1ccc(OC)c(CCC(=O)O)c1`, the melting point lay in the range of 104 to 106 °C.

`CCCCCOc1ccc(OCC(O)CC#CCCCC(=O)O)cc1` (centres undefined) came in with a melting point of 58 to 60 °C.

`CNc1ccn2c(C(=O)c3ccc([N+](=O)[O-])c(OC)c3)c(C)c(C(=O)OCc3ccccc3)c2c1` gave a melting point of 228 °C.

Regarding `CCCCCCCCCCCCn1nnc(CCC(=O)Nc2c(OC)cc(OC)cc2OC)n1`, the melting point fell in the range of 86 to 88 °C.

`CC(Cc1cc(-c2ccccc2)nc2ccccc12)C(=O)O` (centres undefined): the melting point was determined as 185 °C.

Turning to `CCOC(=O)c1cc2n(c1)CNc1ccccc1-2`, the melting point was 140 to 141 °C.

The compound `CCCn1ncnc1COc1nc2c(cc1C(C)(C)C)nnn2-c1ccccc1F` yielded a melting point of 127 to 129 °C.

In turn, `CCS(=O)(=O)N(C)C1CC(C)(C)Oc2ccc(OCc3ccccc3)cc21` (centres undefined) yielded a melting point of 91 to 93 °C.

`CCOC(=O)C(=CNc1ccc2nc(C)n(C)c2n1)C(=O)OCC` showed a melting point of 128 to 130 °C.

For the compound `CCCc1cc(Cl)c2oc(Cc3ccc(O)cc3)c(C)c2c1O`, the melting point is 142 to 143 °C.

Consider `NC(=O)C(CCc1ccccc1)NC(=O)c1ccc2[nH]c(-c3ccccc3)c(-c3ccccc3)c2c1` (centres undefined), for which the melting point was in the range of 120 to 125 °C.

`CCN(CC)C(=O)c1cc2ccccc2c(-c2cccc(F)c2)n1` came in with a melting point of 92 °C.

As to `CC1(C)OC(=S)Nc2ccc(-c3cc(Cl)cc(Cl)c3)cc21`, the melting point was 206 to 208 °C.

Regarding `CC1=C(C(=O)OC(C)(C)C)C(c2cccc([N+](=O)[O-])c2)N(C(=O)N(C)C)C(=O)N1` (centres undefined), the melting point is 187 to 188 °C.

With `CCOC(=O)[C@@H]([C@H](N)C(=O)O)[C@@H](C)O`, the melting point lay in the range of 150 to 151 °C.

Turning to `COc1ccccc1CN1CCN(CCN2CCC(O)(c3ccccc3)CC2)C(c2ccccc2)C1` (centres undefined), the melting point lay in the range of 63 to 65 °C.

Regarding `CC(=O)C(=[N+]=[N-])C(=O)CCCCCCCCCc1ccccc1`, the melting point fell in the range of 29 to 31 °C.

`Cn1c(C(F)(F)F)cc(=O)n(-c2ccc3snc(CF)c3c2)c1=O` showed a melting point of 201 to 202 °C.

In the case of `CCOC(=O)c1c(CC)nn2c(-c3cccc(C(F)(F)F)c3)ccnc12`, the melting point lay within 142 to 143 °C.

Consider `CCOC(=O)c1c(N(CC)CC)c2ccc(C)nc2n(CC)c1=O`, for which the melting point was 79 to 82 °C.

`Cc1ccc(C(=O)/C=C/c2c(-c3ccc(F)cc3)nc3sccn23)cc1C`: the melting point was 210 to 213 °C.

Compound `COc1ccccc1N1CCN(S(=O)(=O)c2ccc(N)cc2)CC1` had a melting point of 230 to 232 °C.

As to `CCOC(=O)c1sc(-c2cc3cccc(NS(=O)(=O)c4cccs4)c3[nH]2)nc1C`, the melting point fell in the range of 226 to 228 °C.

Regarding `CCC1(O)CC(=O)OCc2c1cc1n(c2=O)Cc2c-1nc1ccc(Cl)cc1c2-c1ccccc1F` (centres undefined), the melting point is more than 250 °C.

`Cc1cc(-c2ncn(Cc3ccc(F)cc3)n2)sc1C(=O)NCc1ccccc1`: the melting point lay within 128 to 130 °C.

For `CNC(CC(=O)O)c1ccccc1` (centres undefined), the melting point lay in the range of 167 to 168 °C.

In the case of `CC(C)(C)OC(=O)N1CC(CCl)c2c1ccc1ccccc21` (centres undefined), the melting point was 107 to 108 °C.

Regarding `O=C(Nc1nccs1)c1cn(CC2CCCCC2)c2cc(Cl)ccc12`, the melting point is 181 to 183 °C.

`CCCCCCCCCCCCCCOc1ccc(CC(=O)Cl)cc1` showed a melting point of 78 to 80 °C.

Regarding `CCOC(=O)NCCN1CCC(n2c(=O)[nH]c3cc(Cl)ccc32)CC1`, the melting point came out at 188 °C.

For the compound `Cn1cc(-c2cc3cccnc3[nH]2)c2cc(OC3(CO)CCC3)ccc21`, the melting point was 144 to 146 °C.

On to `Nc1nc(Cl)cc(NCC2(CO)COC2)n1`, for which the melting point was 185 to 186 °C.

`N=C(N)Nc1nc(CCCCC(N)=NO)cs1` had a melting point of 167 to 168 °C.
